According to patent US20160122320A1, “USEFUL COMBINATIONS OF MONOBACTAM ANTIBIOTICS WITH BETA-LACTAMASE INHIBITORS” (Basilea Pharmaceutica AG, priority 2005, published 2016):

How the values were obtained:
Assay in all cases: MIC, NCCLS broth microdilution
Format in all cases: cell-based
[1] = system: Enterobacter cloacae ATCC13047/CRO-R
Experimental: (§1) Antimicrobial activity of the compounds and of their combinations was determined against a selection of organisms according to the standard procedures described by the National Committee for Clinical Laboratory Standards (National Committee for Clinical Laboratory. Standards (2000). Methods for Dilution Antimicrobial Susceptibility Tests for Bacteria That Grow Aerobically-Fifth Edition: Approved Standard M7-A5. NCCLS, Wayne, Pa., USA).
(§2) In all cases the final concentration of DMSO incubated with the bacteria is less than or equal to 1%. […] Plates were incubated overnight at an appropriate temperature (30° C. or 37° C.) and optical densities assessed by eye. The MIC value is defined as the lowest compound concentration completely inhibiting visible growth of the test organism. When combinations between compounds of formula I with compounds of formula II and are evaluated the compounds of formula I are tested in dilution series as described above while the compounds of formula II and III-XIII were present in all wells at a constant concentration of 4 μg/mL each.

[2] = system: Enterobacter cloacae MRW
Experimental: as §2

[3] = system: Klebsiella pneumoniae CF104
Experimental: as §1, §2

[4] = system: Enterobacter aerogenes B1
Experimental: as §1, §2

[5] = system: Serratia marcescens S6
Experimental: as §1, §2

[6] = system: Enterobacter cloacae P99
[7] = system: Stenotrophomonas malthophilia 1AC736; settings: for MIC of antibiotic: antibiotic alone, no inhibitor
Experimental: as §1, §2

[8] = + compound 323 and clavulanate, 4 mg/L each
[9] = with clavulanate (clavulanic acid)

With `CC1C(NC(=O)C(=NOCc2cc(=O)c(O)cn2O)c2csc(N)n2)C(=O)N1S(=O)(=O)O` (stereo not shown) [Compound 1] the “Minimal Inhibitory Concentration of antibiotic at fixed inhibitor concentration of 4 mg/L” value (“Minimal Inhibitory Concentration … of 4 mg/L” below) ([1]; + clavulanate 4 mg/L) was >32 mg/L, the “Minimal Inhibitory Concentration … of 4 mg/L” value ([1]; + compound 206 4 mg/L) was >32 mg/L and the “Minimal Inhibitory Concentration … of 4 mg/L” value [1, 8] was 8 mg/L. The “Minimal Inhibitory Concentration … of 4 mg/L” value ([1]; + compound 501 4 mg/L) was >32 mg/L, the “Minimal Inhibitory Concentration of antibiotic” value ([1]; antibiotic alone) was >32 mg/L and the “Minimal Inhibitory Concentration … of 4 mg/L” value ([2]; + clavulanate 4 mg/L) was 32 mg/L. For the same compound, the “Minimal Inhibitory Concentration … of 4 mg/L” value ([2]; + compound 206 4 mg/L) was 16 mg/L, the “Minimal Inhibitory Concentration … of 4 mg/L” value [2, 8] was 4 mg/L and the “Minimal Inhibitory Concentration … of 4 mg/L” value ([2]; + compound 501 4 mg/L) was 32 mg/L. The “Minimal Inhibitory Concentration of antibiotic” value ([2]; antibiotic alone) was >32 mg/L, the MIC of antibiotic ([3]; antibiotic alone, no inhibitor) was >32 µg/mL and the “MIC of antibiotic at fixed inhibitor concentration of 4 mg/L” value ([3]; with 102 and clavulanate) was 1 µg/mL. For the same compound, the “MIC of antibiotic at fixed inhibitor concentration of 4 mg/L” value ([3]; with 111 and clavulanate) was <0.06 µg/mL, the “MIC of antibiotic at fixed inhibitor concentration of 4 mg/L” value ([3]; with 202 and clavulanate) was 2 µg/mL and the “MIC of antibiotic at fixed inhibitor concentration of 4 mg/L” value ([3]; with 206 and clavulanate) was 0.25 µg/mL. The “MIC of antibiotic at fixed inhibitor concentration of 4 mg/L” value ([3]; with 323 and clavulanate) was 2 µg/mL, the “MIC of antibiotic at fixed inhibitor concentration of 4 mg/L” value ([3]; with 323 and sulbactam) was 1 µg/mL and the “MIC of antibiotic at fixed inhibitor concentration of 4 mg/L” value ([3]; with 324 and clavulanate) was 1 µg/mL. For the same compound, the “MIC of antibiotic at fixed inhibitor concentration of 4 mg/L” value ([3]; with 501) was 0.5 µg/mL, the “MIC of antibiotic at fixed inhibitor concentration of 4 mg/L” value [3, 9] was 0.5 µg/mL and the “Minimal Inhibitory Concentration … of 4 mg/L” value ([4]; + clavulanate 4 mg/L) was >32 mg/L. For the same compound, the “Minimal Inhibitory Concentration … of 4 mg/L” value ([4]; + compound 206 4 mg/L) was 16 mg/L, the “Minimal Inhibitory Concentration … of 4 mg/L” value [4, 8] was 4 mg/L and the “Minimal Inhibitory Concentration … of 4 mg/L” value ([4]; + compound 501 4 mg/L) was >32 mg/L. For the same compound, the “Minimal Inhibitory Concentration of antibiotic” value ([4]; antibiotic alone) was 32 mg/L, the “MIC of antibiotic at fixed inhibitor concentration of 4 mg/L” value ([5]; with 111 and clavulanate) was 0.25 µg/mL and the “MIC of antibiotic at fixed inhibitor concentration of 4 mg/L” value ([5]; with 202 and clavulanate) was 0.5 µg/mL. For the same compound, the “MIC of antibiotic at fixed inhibitor concentration of 4 mg/L” value ([5]; with 206 and clavulanate) was 4 µg/mL, the “MIC of antibiotic at fixed inhibitor concentration of 4 mg/L” value ([5]; with 323 and clavulanate) was 0.25 µg/mL and the “MIC of antibiotic at fixed inhibitor concentration of 4 mg/L” value ([5]; with 323 and sulbactam) was 0.5 µg/mL. The “MIC of antibiotic at fixed inhibitor concentration of 4 mg/L” value ([5]; with 324 and clavulanate) was 1 µg/mL, the “MIC of antibiotic at fixed inhibitor concentration of 4 mg/L” value ([5]; with 501) was 4 µg/mL and the “MIC of antibiotic at fixed inhibitor concentration of 4 mg/L” value [5, 9] was 4 µg/mL. For the same compound, the MIC of antibiotic ([6]; antibiotic alone, no inhibitor) was >32 µg/mL, the “MIC of antibiotic at fixed inhibitor concentration of 4 mg/L” value ([6]; with 102 and clavulanate) was 4 µg/mL and the “MIC of antibiotic at fixed inhibitor concentration of 4 mg/L” value ([6]; with 111 and clavulanate) was 4 µg/mL. For the same compound, the “MIC of antibiotic at fixed inhibitor concentration of 4 mg/L” value ([6]; with 202 and clavulanate) was 16 µg/mL, the “MIC of antibiotic at fixed inhibitor concentration of 4 mg/L” value ([6]; with 206 and clavulanate) was 8 µg/mL and the “MIC of antibiotic at fixed inhibitor concentration of 4 mg/L” value ([6]; with 323 and clavulanate) was 4 µg/mL. For the same compound, the “MIC of antibiotic at fixed inhibitor concentration of 4 mg/L” value ([6]; with 323 and sulbactam) was 4 µg/mL, the “MIC of antibiotic at fixed inhibitor concentration of 4 mg/L” value ([6]; with 324 and clavulanate) was 4 µg/mL and the “MIC of antibiotic at fixed inhibitor concentration of 4 mg/L” value ([6]; with 501) was 16 µg/mL. For the same compound, the “MIC of antibiotic at fixed inhibitor concentration of 4 mg/L” value [6, 9] was 32 µg/mL, the MIC of antibiotic ([7]; Stenotrophomonas malthophilia 1AC736) was 0.5 µg/mL and the MIC of antibiotic ([7]; Stenotrophomonas maltophilia 1AC736) was 1 µg/mL. For the same compound, the “MIC of antibiotic at fixed inhibitor concentration of 4 mg/L” value ([7]; Stenotrophomonas maltophilia 1AC736, with 102 and sulbactam) was 2 µg/mL, the “MIC of antibiotic at fixed inhibitor concentration of 4 mg/L” value ([7]; Stenotrophomonas maltophilia 1AC736, with 111 and clavulanate) was 0.125 µg/mL and the “MIC of antibiotic at fixed inhibitor concentration of 4 mg/L” value ([7]; Stenotrophomonas maltophilia 1AC736, with 202 and clavulanate) was 0.125 µg/mL. The “MIC of antibiotic at fixed inhibitor concentration of 4 mg/L” value ([7]; Stenotrophomonas maltophilia 1AC736, with 206 and clavulanate) was 0.125 µg/mL.
